This data set is described as follows: in vitro. The conditions noted are these: human, real gastrointestinal fluid or homogenate; for remaining at 1 h, 1 mg/ml: pH 7, % Peptide remaining at 1 hours (T = 1 h). How it is done: A human colonic model based on a mixed faecal inoculum was used to mimic the luminal environment of the human large intestine. An anaerobic workstation (Electrotek 500TG™ workstation, Electrotek, West Yorkshire, UK) maintained at 37° C. and 70% relative air humidity was used to set up the model. The fecal material was transferred in the anaerobic workstation and diluted with freshly prepared basal medium to obtain 20% w/w slurry by homogenization. The basal media provides nutrients and growth factors to the microbiota allowing viability for up to 24 hours. The homogenized bacterial media was sieved through an open mesh fabric (SefarNitex™, pore size 350 μm) to remove any nonhomogeneous fibrous material. The pH was maintained at approximately 7 to mimic the colonic luminal pH of the human.
Desmopressin stock solution was prepared in HPLC water at 2 mg/ml without or with single L-amino acids, combinations of L-amino acids or di-peptides at 10 and/or 20 and/or 40 mM concentrations and added to […] human faecal slurry; […] Samples were withdrawn at appropriate time points and added to HPLC grade methanol in a ratio of 1:1. The samples were centrifuged at […] for 10 minutes at 4° C. and the supernatant was analysed by Reversed Phase-HPLC (RP-HPLC).
Sample analysis was performed using a high performance liquid chromatography (HPLC) system (Agilent Technologies, 1260 Infinity II Series™) equipped with a pump (model G7111A), autosampler (model G7129A) and a diode-array UV detector (model G7114A). A 150×4.6-mm, 5 μm, 100 Å (Phenomenex, UK) reversed phase chromatography column was used for sample separation using 0.1% TFA in water (A) and acetonitrile (B) as the mobile phase for elution, at a flow rate of 1 ml/min. The gradient was set up with 17% of B at 0-4 minutes, 30% of B at 20 minutes and 17% of B at 20.01-23 minutes. The analysis was operated at room temperature and UV detection wavelength was set at 220 nm. Each sample was run for 23 minutes to allow complete elution of the sample without overlapping matrix interferences.
Colon stability was assessed using the Human Colon model with the amount of intact desmopressin remaining at each time point assessed by RP-HPLC as described in the Methods section.
Colon stability was assessed using the Human Colon model with the amount of intact oxytocin, oxytocin with 1 D-amino acid and linear oxytocin remaining at each time point assessed by RP-HPLC as described in the Methods section.

Broadly, the fraction remaining is the share of the starting amount still present when the sample was taken. As for `CC[C@H](C)[C@@H]1NC(=O)[C@H](Cc2ccc(O)cc2)NC(=O)[C@@H](N)CSSC[C@@H](C(=O)N2CCC[C@H]2C(=O)N[C@@H](CC(C)C)C(=O)NCC(N)=O)NC(=O)[C@H](CC(N)=O)NC(=O)[C@H](CCC(N)=O)NC1=O` [Oxytocin], the share remaining at 1 h, 1 mg/ml came out at 6.6 ± 0.25%.

Take `NC(=O)CC[C@@H]1NC(=O)[C@H](Cc2ccccc2)NC(=O)[C@H](Cc2ccc(O)cc2)NC(=O)CCSSC[C@@H](C(=O)N2CCC[C@H]2C(=O)N[C@H](CCCN=C(N)N)C(=O)NCC(N)=O)NC(=O)[C@H](CC(N)=O)NC1=O` [Desmopressin]: where the note is “1 h, 0.1 mg/ml, pH 7”, the “% Desmopressin remaining after 1 hours (T = 1 h)” value is 22.6 ± 2.7%. Further, for the setting “pH 7, % Desmopressin remaining after 1 hours (T = 1 h)”, the amount remaining at 1 h, 0.1 mg/ml is 28.8 ± 1.2%.

For `CC[C@H](C)[C@H](NC(=O)[C@H](Cc1ccc(O)cc1)NC(=O)[C@@H](N)CS)C(=O)N[C@@H](CCC(N)=O)C(=O)N[C@@H](CC(N)=O)C(=O)N[C@@H](CS)C(=O)N1CCC[C@H]1C(=O)N[C@H](CC(C)C)C(=O)NCC(N)=O` [Linear Oxytocin with 1 D-amino acid], the amount remaining at 1 h, 1 mg/ml worked out at 0%. For the same compound, where the note is “pH 7, % Peptide remaining at 0.5 hours (T = 0.5 h)”, the share remaining at 0.5 h, 1 mg/ml amounted to 0%.

The values are drawn from patent US20230405081A1, “PHARMACEUTICAL COMPOSITION COMPRISING A PEPTIDE AS ACTIVE INGREDIENT” (INTRACT PHARMA LIMITED, priority 2020, published 2023).
